Reference: patent US20120328526A1, “Modulation of Nad+ Activity in Neuropathophysiological Conditions and Uses Thereof” (University of Maryland, Baltimore, priority 2011, published 2012)

Test system: synaptosomes
Assay: NAD+ uptake by isolated synaptosomes (synaptosomal NAD(H) levels)
Parameters: species or system mouse

Question: Which “increase of synaptosomal NAD(H) levels compared to control samples” value (synaptosomes incubated with 10 mM NAD+) does the source give for `NC(=O)c1ccc[n+]([C@@H]2O[C@H](COP(=O)([O-])OP(=O)(O)OC[C@H]3O[C@@H](n4cnc5c(N)ncnc54)[C@H](O)[C@@H]3O)[C@@H](O)[C@H]2O)c1` [NAD^+, nicotinamide adenine dinucleotide] here?
Answer: The value was 2 fold.

Question: How did the “uptake of NAD+ by synaptosomes” value (purinergic receptor P2X(7)-gated channels inhibitor) turn out when brilliant blue was run?
Answer: The value was “blocked”.
